From patent US5523315A, “N-(hydroxyethyl)butanediamide derivatives” (Bio-Mega/Boehringer Ingelheim Research Inc., priority 1993, dated 1996) come the findings set out here.

Molecules are shown by their SMILES.

Usually IC50 stands for the midpoint of a concentration-inhibition curve. Read a low IC50 as higher potency.

For this assay, the target named is T1, human renin (Homo sapiens, UniProt P00797).
T1 construct: A human plasma pool is used as the source of both the substrate (angiotensinogen) and the enzyme (renin); from tissue; host or cells: pooled human plasma
T1 sequence (P00797 67-406): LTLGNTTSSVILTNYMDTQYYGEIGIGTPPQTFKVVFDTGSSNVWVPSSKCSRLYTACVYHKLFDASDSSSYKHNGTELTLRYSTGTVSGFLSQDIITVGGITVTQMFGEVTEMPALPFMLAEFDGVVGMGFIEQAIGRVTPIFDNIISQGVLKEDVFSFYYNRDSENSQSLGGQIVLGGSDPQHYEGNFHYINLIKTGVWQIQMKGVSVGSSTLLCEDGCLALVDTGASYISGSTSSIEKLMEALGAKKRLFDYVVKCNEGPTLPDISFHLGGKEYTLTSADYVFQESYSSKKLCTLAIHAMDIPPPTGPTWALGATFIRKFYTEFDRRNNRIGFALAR
The assay is described as follows: plasma renin assay (inhibition of human renin; angiotensin I generated, measured by radioimmunoassay). The settings on record: human plasma pool, pH 6.0, 2 h incubation at 37°. The assay is classed as biochemical. As to the method:
The assay is performed as follows: The test compound (i.e. the inhibitor) is dissolved in dimethylsulfoxide (1 mM stock solution) and diluted with an aqueous buffer solution of 270 mM 2-(N-morpholino)ethanesulfonic acid and 1% human serum albumin (pH 5.85, also containing dimercaprol and 8-hydroxyquinoline sulfate in accordance with the instructions of the RIA kit noted below) to give an assay mixture in which the final dimethylsulfoxide content is 1% (v/v).
A human plasma pool is used as the source of both the substrate (angiotensinogen) and the enzyme (renin). The reaction is initiated by the addition of 50 μL of human plasma pool to 50 μL of various concentrations of inhibitor in the 1% dimethylsulfoxide assay buffer. The plasma renin activity is measured by the amount of angiotensin I generated at pH 6.0 following a 2 h incubation at 37°.
Quantitation of angiotensin I is performed by radioimmunoassay (RIA kit from New England Nuclear-Dupont, Mississauga, ON, Canada). The enzymatic activity of renin is expressed in ng of angiotensin I generated (/mL/2 h). The extent of inhibition of the reaction is determined from the amount of angiotensin I generated in reference to a control prepared without inhibitor. Nonlinear regression analysis is used to calculate the IC50 values, i.e. the molar concentration of the test compound required to cause a 50% inhibition of the enzyme activity.
Regarding `CC(C)C[C@H](O)[C@H](O)[C@H](CC1CCCCC1)NC(=O)[C@@H](CC(=O)N(CC(=O)N(C)C)CC(O)C1CCCCC1)Cc1cscn1` (mixture of isomers) [Compound 42, N^4-[2-cyclohexyl-2(R,S)-hydroxyethyl]-N^4-[2-(dimethylamino)-2-oxoethyl]-N^1-[1(S)-(cyclohexylmethyl)-2(R),3(S)-dihydroxy-5-methylhexyl]-2(R)-(4-thiazolylmethyl)butanediamide], it took 0.016 µM to reach half-maximal inhibition (IC50).
For `CC(C)C[C@H](O)[C@H](O)[C@H](CC1CCCCC1)NC(=O)[C@@H](CC(=O)N(C)CC1(O)CCCCC1)Cc1cscn1` [Compound 30, N^4-[(1-hydroxycyclohexyl)methyl]-N^4-methyl-N^1-[1(S)-(cyclohexylmethyl)-2(R),3(S)-dihydroxy-5-methylhexyl]-2(R)-(4-thiazolylmethyl)butanediamide], the IC50 amounted to 0.012 µM.
For `CC(C)C[C@H](O)[C@H](O)[C@H](CC1CCCCC1)NC(=O)[C@@H](CC(=O)N(Cc1ccccc1)CC1(O)CCCCC1)Cc1c[nH]cn1` [Compound 28] the value was 0.053 µM; for `CC(C)C[C@H](O)[C@H](O)[C@H](CC1CCCCC1)NC(=O)[C@@H](CC(=O)N(CC1CCCC1)CC(C)(C)O)Cc1cscn1` [Compound 50, N^4-(cyclopentylmethyl)-N^4-(2-hydroxy-2-methylpropyl)-N^1-[1(S)-(cyclohexylmethyl)-2(R),3(S)-dihydroxy-5-methylhexyl]-2(R)-(4-thiazolylmethyl)butanediamide], 0.013 µM; for `CC(C)C[C@H](O)[C@H](O)[C@H](CC1CCCCC1)NC(=O)[C@@H](CC(=O)N[C@@H](CO)CC1CCCCC1)Cc1cscn1` [Compound 45], 0.037 µM.
`CC(C)C[C@H](O)[C@H](O)[C@H](CC1CCCCC1)NC(=O)[C@@H](CC(=O)N(CC1CCCCC1)CC(C)(C)O)Cc1c[nH]cn1` [Compound 43, N^4-(cyclohexylmethyl)-N^4-(2-hydroxy-2-methylpropyl)-N^1-[1(S)-(cyclohexylmethyl)-2(R),3(S)-dihydroxy-5-methylhexyl]-2(R)-(1H-imidazol-4-ylmethyl)butanediamide] displayed a half-inhibitory concentration (IC50) of 0.014 µM.
The same measure for `CC(C)C[C@H](O)[C@H](O)[C@H](CC1CCCCC1)NC(=O)[C@@H](CC(=O)N[C@H](CO)Cc1ccccc1)CC1CC1` [Compound 14, N^4-(S)-[1-(hydroxymethyl)-2-phenylethyl]-N^1-[1(S)-(cyclohexylmethyl)-2(R),3(S)-dihydroxy-5-methylhexyl]-2(R)-(cyclopropylmethyl)butanediamide]: 0.079 µM; for `CC(C)C[C@H](O)[C@H](O)[C@H](CC1CCCCC1)NC(=O)[C@@H](CC(=O)N(CCc1ccccn1)CC1(O)CCCCC1)CC1CC1` [Compound 7, N^4-[(1-hydroxycyclohexyl)methyl]-N^4-[2-(2-pyridinyl)ethyl]-N^1-[1(S)-(cyclohexylmethyl)-2(R),3(S)-dihydroxy-5-methylhexyl]-2(R)-(cyclopropylmethyl)butanediamide]: 0.053 µM; for `CC(C)C[C@H](O)[C@H](O)[C@H](CC1CCCCC1)NC(=O)[C@@H](CC(=O)N(CC1CCCCC1)CC1(O)CCCCC1)CC1CC1` [Compound 25, N^4-(cyclohexylmethyl)-N^4-[(1-hydroxycyclohexyl)methyl]-N^1-[1(S)-(cyclohexylmethyl)-2(R),3(S)-dihydroxy-5-methylhexyl]2(R)-(cyclopropylmethyl)butanediamide]: 0.079 µM.
Take `CC(C)C[C@H](O)[C@H](O)[C@H](CC1CCCCC1)NC(=O)[C@@H](CC(=O)N(CC(=O)N(C)C)CC1(O)CCCCC1)Cc1c[nH]cn1` [Compound 24, N^4-[(1-hydroxycyclohexyl)methyl]-N^4-[2-(dimethylamino)-2-oxoethyl]-N^1-[1(S)-(cyclohexylmethyl)-2(R),3(S)-dihydroxy-5-methylhexyl]-2(R)-(1H-imidazol-4-ylmethyl)-butanediamide]: the 50% inhibitory concentration (IC50) came to 0.0018 µM.
Take `CC(C)C[C@H](O)[C@H](O)[C@H](CC1CCCCC1)NC(=O)[C@@H](CC(=O)N(CC(C)O)CC1CCCCC1)Cc1cscn1` (single isomer, unassigned) [Compound 40, N^4-(cyclohexylmethyl)-N^4-[2(S or R)-hydroxypropyl]-N^1-[1(S)-(cyclohexylmethyl)-2(R),3(S)-dihydroxy-5-methylhexyl]-2(R)-(4-thiazolylmethyl)butanediamide]: the IC50 came out at 0.011 µM.
`CC(C)C[C@H](O)[C@H](O)[C@H](CC1CCCCC1)NC(=O)[C@@H](CC(=O)N(Cc1ccccc1)CC(O)c1ccccc1)CC1CC1` (stereo partly drawn) [Compound 12, N^4-benzyl-N^4-(R,S)-(2-hydroxy-2-phenylethyl)-N^1-[1(S)-(cyclohexylmethyl)-2(R),3(S)-dihydroxy-5-methylhexyl]-2(R)-(cyclopropylmethyl)butanediamide] registered a concentration for half-maximal inhibition (IC50) of 0.071 µM.
For `CC(C)C[C@H](O)[C@H](O)[C@H](CC1CCCCC1)NC(=O)[C@@H](CC(=O)N(Cc1ccccn1)CC1(O)CCCCCC1)CC1CC1` [Compound 8, N^4-[(1-hydroxycycloheptyl)methyl]-N^4-(2-pyridinylmethyl)-N^1-[1(S)-(cyclohexylmethyl)-2(R),3(S)-dihydroxy-5-methylhexyl]-2(R)-(cyclopropylmethyl)butanediamide] the value was 0.065 µM.
For `CC(C)C[C@H](O)[C@H](O)[C@H](CC1CCCCC1)NC(=O)[C@@H](CC(=O)N(Cc1ncc[nH]1)CC1(O)CCCCC1)CC1CC1` [Compound 15, N^4-[(1-hydroxycyclohexyl)methyl]-N^4-(1H-imidazol-2-ylmethyl)-N^1-[1(S)-(cyclohexylmethyl)-2(R),3(S)-dihydroxy-5-methylhexyl]-2(R)-(cyclopropylmethyl)butanediamide] the value was 0.08 µM; for `CC(C)C[C@H](O)[C@H](O)[C@H](CC1CCCCC1)NC(=O)[C@@H](CC(=O)N(CC(C)O)CC1CCCCC1)Cc1cscn1` (single isomer, unassigned) [Compound 39, N^4-(cyclohexylmethyl)-N^4-[2(R or S)-hydroxypropyl]-N^1-[1(S)-(cyclohexylmethyl)-2(R),3(S)-dihydroxy-5-methylhexyl]-2(R)-(4-thiazolylmethyl)butanediamide], 0.0087 µM.
The same measure for `CC(C)C[C@H](O)[C@H](O)[C@H](CC1CCCCC1)NC(=O)[C@@H](CC(=O)N(Cc1ccccc1)CC1(O)CCCCC1)CC1CC1` [Compound 1, N^4-benzyl-N^4-[(1-hydroxycyclohexyl)methyl]-N^1-[1(S)-(cyclohexylmethyl)-2(R),3(S)-dihydroxy-5-methylhexyl]-2(R)-(cyclopropylmethyl)butanediamide]: 0.036 µM; for `CC(C)C[C@H](O)[C@H](O)[C@H](CC1CCCCC1)NC(=O)[C@@H](CC(=O)N(Cc1ccc2c(c1)OCO2)CC1(O)CCCCC1)CC1CC1` [Compound 3, N^4-[(1-hydroxycyclohexyl)methyl]-N^4-[(4,5-methylenedioxyphenyl)methyl]-N^1-[1(S)-(cyclohexylmethyl)-2(R),3(S)-dihydroxy-5-methylhexyl]-2(R)-(cyclopropylmethyl)butanediamide]: 0.021 µM; for `CC(C)C[C@H](O)[C@H](O)[C@H](CC1CCCCC1)NC(=O)[C@@H](CC(=O)N(CCO)CC1CCCCC1)CC1CC1` [Compound 31, N^4-(cyclohexylmethyl)-N^4-(2-hydroxyethyl)-N^1-[1(S)-(cyclohexylmethyl)-2(R),3(S)-dihydroxy-5-methylhexyl]-2(R)-(cyclopropylmethyl)butanediamide]: 0.1 µM.
